From US9790169B2, “IDO inhibitors” (BRISTOL-MYERS SQUIBB COMPANY, priority 2015, dated 2017)

What follows are compounds tested against human IDO1 (Homo sapiens, UniProt P14902) (assay: Assessment of human IDO-1 inhibitory activity in HEK cells (human IDO1/HEK293 cells, kynurenine read-out with Ehrlich reagent, absorbance 490 nm)). Conditions: HEK Human IDO-1 cellular assay.
Format: cell-based
Design: expressed in transfected cells
How it was run: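 Kynurenine output from stably IDO1-transfected HEK293 cells (10,000/well, phenol red-free RPMI, 10% FBS) after 20 h compound exposure at 37 °C. The reaction was stopped with 0.2% TCA and heated 30 min at 50 °C, then the supernatant was mixed with Ehrlich reagent and read at 490 nm. IC50 was set against DMSO and a 500 nM reference standard as 0 and 100% inhibition.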

human IDO1, sequence (P14902 whole entry): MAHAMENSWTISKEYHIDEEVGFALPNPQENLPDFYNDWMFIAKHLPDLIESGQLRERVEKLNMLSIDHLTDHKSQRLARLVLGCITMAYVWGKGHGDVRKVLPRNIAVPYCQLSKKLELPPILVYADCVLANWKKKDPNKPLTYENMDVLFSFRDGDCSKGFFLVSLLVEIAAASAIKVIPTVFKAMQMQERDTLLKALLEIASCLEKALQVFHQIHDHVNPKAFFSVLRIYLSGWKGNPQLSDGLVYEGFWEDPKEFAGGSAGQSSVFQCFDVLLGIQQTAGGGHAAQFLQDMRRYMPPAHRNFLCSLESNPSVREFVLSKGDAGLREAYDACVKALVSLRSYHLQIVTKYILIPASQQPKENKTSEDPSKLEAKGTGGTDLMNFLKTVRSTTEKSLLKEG

Row | SMILES | IC50
1 | COCC(CC(=O)O)c1ccc(N(CC2CC2)C2CCOCC2)c(Nc2ccc(C#N)cc2)c1 (single isomer, unassigned) [Example 687, 3-(3-((4-cyanophenyl)amino)-4-((cyclopropylmethyl) (tetrahydro-2H-pyran-4-yl)amino)phenyl)-4-methoxybutanoic acid] | < 0.05 µM
2 | COCC(CC(=O)O)c1ccc(N(CC2CC2)C2CCOCC2)c(Nc2ccc(C(N)=O)nc2)c1 (single isomer, unassigned) [Example 688, 3-(3-((6-carbamoylpyridin-3-yl)amino)-4-((cyclopropylmethyl) (tetrahydro-2H-pyran-4-yl)amino)phenyl)-4-methoxybutanoic acid] | > 0.05 µM
3 | COCC(CC(=O)O)c1ccc(N(CC2CC2)C2CCOCC2)c(Nc2ccc(Cl)cc2)c1 (single isomer, unassigned) [Example 690, 3-(3-((4-chlorophenyl)amino)-4-((cyclopropylmethyl) (tetrahydro-2H-pyran-4-yl)amino)phenyl)-4-methoxybutanoic acid] | > 0.05 µM
4 | COCC(CC(=O)O)c1ccc(N(CC2CC2)C2CCOCC2)c(Nc2ccc(C#N)cc2)c1 (single isomer, unassigned) [Example 691, 3-(3-((4-cyanophenyl)amino)-4-((cyclopropylmethyl) (tetrahydro-2H-pyran-4-yl)amino)phenyl)-4-methoxybutanoic acid] | < 0.005 µM
5 | COCC(CC(=O)O)c1ccc(N(CC2CC2)C2CCOCC2)c(Nc2ccc(C#N)c(C)c2)c1 (single isomer, unassigned) [Example 692, 3-(3-((4-cyano-3-methylphenyl)amino)-4-((cyclopropylmethyl) (tetrahydro-2H-pyran-4-yl)amino)phenyl)-4-methoxybutanoic acid] | < 0.05 µM
6 | CCC(CC(=O)O)c1ccc(N(CC2CC2)C2CCOCC2)c(NC(=O)Nc2ccc(C)cc2)c1 (single isomer, unassigned) [Example 695, 3-(4-((Cyclopropylmethyl)(tetrahydro-2H-pyran-4-yl)amino)-3-(3-(p-tolyl)ureido)phenyl)pentanoic acid] | < 0.05 µM
7 | CCC(CC(=O)O)c1ccc(N(CC2CC2)C2CCOCC2)c(NC(=O)Nc2ccc(Cl)cc2F)c1 (single isomer, unassigned) [Example 696, 3-(3-(3-(4-Chloro-2-fluorophenyl)ureido)-4-((cyclopropylmethyl)(tetrahydro-2H-pyran-4-yl)amino)phenyl)pentanoic acid] | < 0.005 µM
8 | CCC(CC(=O)O)c1ccc(N(CC2CC2)C2CCOCC2)c(Nc2ccc(Cl)cc2)c1 (single isomer, unassigned) [Example 702, 3-(3-((4-chlorophenyl)amino)-4-((cyclopropylmethyl) (tetrahydro-2H-pyran-4-yl)amino)phenyl)pentanoic acid] | < 0.005 µM
9 | CCC(CC(=O)O)c1ccc(N(CC2CC2)C2CCOCC2)c(Nc2ccc3c(c2)OC(F)(F)O3)c1 (single isomer, unassigned) [Example 704, 3-(4-((cyclopropylmethyl) (tetrahydro-2H-pyran-4-yl)amino)-3-((2,2-difluorobenzo[d][1,3]dioxol-5-yl)amino)phenyl) pentanoic acid] | < 0.05 µM
10 | CCOc1ncc(Nc2cc(C(CC)CC(=O)O)ccc2N(CC2CC2)C2CCOCC2)cn1 (single isomer, unassigned) [Example 705, 3-(4-((cyclopropylmethyl) (tetrahydro-2H-pyran-4-yl)amino)-3-((2-ethoxypyrimidin-5-yl)amino)phenyl)pentanoic acid] | < 0.005 µM
11 | CCC(CC(=O)O)c1ccc(N(CC2CC2)C2CCOCC2)c(Nc2ccc(C#N)cc2)c1 (single isomer, unassigned) [Example 706, 3-(3-((4-cyanophenyl)amino)-4-((cyclopropylmethyl) (tetrahydro-2H-pyran-4-yl)amino)phenyl)pentanoic acid] | < 0.005 µM
12 | CCC(CC(=O)O)c1ccc(N(CC2CC2)C(C)C)c(Nc2ccc(Cl)cc2)c1 (single isomer, unassigned) [Example 714, 3-(3-((4-chlorophenyl)amino)-4-((cyclopropylmethyl) (isopropyl)amino)phenyl) pentanoic acid] | < 0.005 µM
13 | CCC(CC(=O)O)c1ccc(N(CC2CC2)C(C)C)c(Nc2ccc3c(c2)OC(F)(F)O3)c1 (single isomer, unassigned) [Example 715, 3-(4-((cyclopropylmethyl) (isopropyl)amino)-3-((2,2-difluorobenzo[d][1,3]dioxol-5-yl)amino)phenyl) pentanoic acid] | < 0.05 µM
14 | CCC(CC(=O)O)c1ccc(N(CC2CC2)C(C)C)c(Nc2ccc3nc(C)sc3c2)c1 (single isomer, unassigned) [Example 716, 3-(4-((Cyclopropylmethyl)(isopropyl)amino)-3-((2-methylbenzo[d]thiazol-6-yl)amino)phenyl)pentanoic acid] | > 0.05 µM
15 | CCOc1ncc(Nc2cc(C(CC)CC(=O)O)ccc2N(CC2CC2)C(C)C)cn1 (single isomer, unassigned) [Example 718, 3-(4-((cyclopropylmethyl) (isopropyl)amino)-3-((2-ethoxypyrimidin-5-yl)amino)phenyl)pentanoic acid] | < 0.05 µM
16 | CCC(CC(=O)O)c1ccc(N(CC(C)C)C(C)C)c(Nc2ccc(Cl)cc2)c1 (single isomer, unassigned) [Example 727, 3-(3-((4-Chlorophenyl)amino)-4-(isobutyl(isopropyl)amino)phenyl)pentanoic acid] | < 0.005 µM
17 | CC(CC(=O)O)c1ccc(N2C[C@@H](C)O[C@@H](C)C2)c(Nc2ccc(C#N)cc2)c1 (single isomer, unassigned) [Example 737] | > 0.05 µM
18 | CC[C@@H](CC(=O)O)c1ccc(N2C[C@@H](C)O[C@@H](C)C2)c(NC(=O)Nc2ccc(C)cc2)c1 (single isomer, unassigned) [Example 754] | > 0.05 µM
19 | CCOc1ncc(Nc2cc(C(CC)CC(=O)O)ccc2N2C[C@@H](C)O[C@@H](C)C2)cn1 (single isomer, unassigned) [Example 756] | > 0.05 µM
20 | CCC(CC(=O)O)c1ccc(N2C[C@@H](C)O[C@@H](C)C2)c(Nc2ccc3c(c2)OC(F)(F)O3)c1 (single isomer, unassigned) [Example 758] | > 0.05 µM
21 | CC[C@H](CC(=O)O)c1ccc(N2C[C@@H](C)O[C@@H](C)C2)c(Nc2ccc(Cl)cc2)c1 (single isomer, unassigned) [Example 761] | < 0.05 µM
22 | CCC(CC(=O)O)c1ccc(N2C[C@@H](C)O[C@@H](C)C2)c(Nc2ccc(C#N)cc2)c1 (single isomer, unassigned) [Example 764] | < 0.05 µM
23 | CC[C@H](CC(=O)O)c1ccc(N2CCC[C@H]2C(C)(C)O)c(NC(=O)Nc2ccc(C)cc2)c1 (single isomer, unassigned) [Example 767] | > 0.05 µM
24 | CC[C@@H](CC(=O)O)c1ccc(N2CCC[C@H]2C(C)(C)O)c(NC(=O)Nc2ccc(C)cc2)c1 (single isomer, unassigned) [Example 769] | > 0.05 µM

Next, values leading:

Row | IC50 | SMILES
25 | > 0.05 µM | COCC(CC(=O)O)c1ccc(N(CC2CC2)C2CCOCC2)c(Nc2ccc3nc(C)sc3c2)c1 (single isomer, unassigned) [Example 689, 3-(4-((cyclopropylmethyl) (tetrahydro-2H-pyran-4-yl)amino)-3-((2-methylbenzo[d]thiazol-6-yl)amino)phenyl)-4-methoxybutanoic acid]
26 | > 0.05 µM | CCC(CC(=O)O)c1ccc(N(CC2CC2)C2CCOCC2)c(NC(=O)Nc2cc(C)on2)c1 (single isomer, unassigned) [Example 697, 3-(4-((Cyclopropylmethyl)(tetrahydro-2H-pyran-4-yl)amino)-3-(3-(5-methylisoxazol-3-yl)ureido)phenyl)pentanoic acid]
27 | < 0.05 µM | CCC(CC(=O)O)c1ccc(N(CC2CC2)C2CCOCC2)c(Nc2ccc3nc(C)sc3c2)c1 (single isomer, unassigned) [Example 701, 3-(4-((Cyclopropylmethyl)(tetrahydro-2H-pyran-4-yl)amino)-3-((2-methylbenzo[d]thiazol-6-yl)amino)phenyl)pentanoic acid]
28 | < 0.005 µM | CCC(CC(=O)O)c1ccc(N(CC2CC2)C2CCOCC2)c(Nc2cnc(OC)nc2)c1 (single isomer, unassigned) [Example 703, 3-(4-((cyclopropylmethyl) (tetrahydro-2H-pyran-4-yl)amino)-3-((2-methoxypyrimidin-5-yl)amino)phenyl)pentanoic acid]
29 | > 0.05 µM | CCC(CC(=O)O)c1ccc(N(CC(C)C)C(C)C)c(Nc2ccc3nc(C)sc3c2)c1 (single isomer, unassigned) [Example 729, 3-(4-(isobutyl(isopropyl)amino)-3-((2-methylbenzo[d]thiazol-6-yl)amino)phenyl)pentanoic acid]
30 | > 0.05 µM | CC(CC(=O)O)c1ccc(N2C[C@@H](C)O[C@@H](C)C2)c(Nc2ccc(F)cc2)c1 (single isomer, unassigned) [Example 738]
31 | > 0.05 µM | CC(CC(=O)O)c1ccc(N2C[C@@H](C)O[C@@H](C)C2)c(Nc2ccc(Cl)cc2)c1 (single isomer, unassigned) [Example 739]
32 | > 0.05 µM | CCc1ccc(Nc2cc(C(C)CC(=O)O)ccc2N2C[C@@H](C)O[C@@H](C)C2)cc1 (single isomer, unassigned) [Example 740]
33 | > 0.05 µM | COc1ncc(Nc2cc(C(C)CC(=O)O)ccc2N2C[C@@H](C)O[C@@H](C)C2)cn1 (single isomer, unassigned) [Example 741]
34 | < 0.05 µM | CC(CC(=O)O)c1ccc(N2C[C@@H](C)O[C@@H](C)C2)c(Nc2ccc(Cl)cc2)c1 (single isomer, unassigned) [Example 745]
35 | > 0.05 µM | CC[C@H](CC(=O)O)c1ccc(N2C[C@@H](C)O[C@@H](C)C2)c(NC(=O)Nc2ccc(C)cc2)c1 (single isomer, unassigned) [Example 760]
36 | < 0.05 µM | CCC(CC(=O)O)c1ccc(N2C[C@@H](C)O[C@@H](C)C2)c(Nc2ccc3c(c2)OC(F)(F)O3)c1 (single isomer, unassigned) [Example 765]
